Square brackets hold non-standard residues; d marks the D form. Peptide text beside a SMILES is read from it. NMeY = CN[C@@H](Cc1ccc(O)cc1)C(=O)O; NMeL = CN[C@@H](CC(C)C)C(=O)O; dNMeL = CN[C@H](CC(C)C)C(=O)O
Columns and labels:
porcine pepsin = target: T1, porcine pepsin (Sus scrofa, UniProt P00791); experiment: Peptide stability in simulated gastric fluid (SGF); assay type: in vitro ADME; design: remaining at 8 h: dose or concentration left out as unconfirmed; details: pig, simulated gastric fluid (SGF) with porcine pepsin; 8 h, 37 °C, pH 1.2; read-out: Proteolytic stability: SGF (8 h) % remaining
T1 construct: 0.32 g of porcine pepsin (Sigma-Aldrich, P7125) was dissolved under gentle agitation; purchased Sigma-Aldrich P7125
Procedure, shortened: (§1)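 Peptide from a 1 mM DMSO stock was added to fluid pre-warmed at 37 °C. SGF was pH 1.2 NaCl with porcine pepsin (0.32 g per 100 ml), and SIF was pH 6.8 potassium phosphate with porcine pancreatin (1 g per 100 ml). Supernatant peptide was quantified by LC–MS, with residual expressed as T1/T0.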

porcine pancreatin = experiment: Peptide stability in simulated intestinal fluid (SIF); assay type: in vitro ADME; design: remaining at 8 h: dose or concentration left out as unconfirmed; details: pig, simulated intestinal fluid (SIF) with porcine pancreatin; 8 h, 37 °C, pH 6.8; read-out: Proteolytic stability: SIF (8 h) % remaining
Procedure, shortened: as §1

in vivo = details: male, Wistar Han, rat
Experimental: Male Wistar Han rats (250–350 g) obtained at an age of 9–10 weeks from Charles River Laboratories were used for the studies and kept in housing groups of two or three. Experiments were performed at the age of 10–11 weeks. Intravenous (i.v.) administrations were carried out using tail vein injections. Peptides were dissolved in pure DMSO and diluted with 5% Cremophor EL in water (5% DMSO final) at a concentration of 0.5 mg ml^−1. I.v. administration was carried out at a dose of 1 mg kg^−1 body weight via the left lateral tail vein of rats (n = 3) using an Insyte-W 24 G × 0.75 in. (0.7 mm × 19 mm) temporary peripheral venous catheter (BD Biosciences, 381312). Before injecting the peptide solution, a correct placement of the catheter was confirmed by an apparent reflux of blood through the catheter. Orally (p.o.) administrated peptides were dissolved in DMSO and diluted with 10% Cremophor EL in water (5% DMSO final) at a concentration of 1 mg ml^−1 and administrated by oral gavage to rats (n = 3) at a dose of 10 mg kg^−1. Rats used for oral administration were fasted overnight for 14 h and provided access to food again 2 h after administration, whereas access to water was not restricted throughout the whole experimental procedure. Volumes of 100 μl of blood samples were collected via the right lateral tail vein at different timepoints after i.v. or p.o. administration into heparinized tubes (Sarstedt, 20.1282); the samples were stored on ice for up to 4 h; and plasma was obtained by centrifugation at 2,000g for 5 min at 4 °C. A volume of 40 μl of plasma was added to 120 μl of an acetonitrile:water (9:1) solution containing an internal standard (5 μg ml^−1). Samples were vortexed for 10 s and sonicated for 10 min, and precipitated plasma proteins were pelleted by centrifugation at 16,000g for 15 min at 4 °C. Volumes of 120 μl of supernatant were transferred to a new tube, and solvent was evaporated in a rotary vacuum concentrator (RVC 2–33 CDplus IR, Christ) for 2 h at 40 °C. Dried residues were dissolved in 20 μl of a water:acetonitrile (7:3) (v/v) solution, centrifuged at 14,000g for 5 min and analyzed by LC–MS. Peptides were quantified by extracting ion chromatograms corresponding to their respective mass, integrating the area under the peptide peak and calculating the concentrations by normalization to a calibration curve. Calibration curves were prepared by analyzing spiked samples of blood or plasma with known concentrations of peptide. The absolute oral bioavailability was calculated using equation (6).6 F=AUCp.o./AUCi.v.×Dosei.v./Dosep.o.×100 where AUCp.o. and AUCi.v. are calculated from a plasma concentration versus time curve using the linear trapezoidal rule, and Dosei.v. and Dosep.o. are the intravenously or orally administrated amount of peptide in mg kg^−1.

[1] = Metabolic stability in rat liver microsomes (RLMs); details: rat liver microsomes; for half-life at 10 μM / microsomal CLint at 10 μM: rat
[2] = cited from earlier work
[3] = design: method as in PMID 19696042; details: cited from earlier work
[4] = pH 7.4, Metabolic stability: Half life T1/2 (min), RLMs, mean and SD, three measurements
[5] = pH 7.4, Metabolic stability: RLM CL (ul/min/mg), RLMs, mean and SD, three measurements

T1 sequence (P00791 60-385): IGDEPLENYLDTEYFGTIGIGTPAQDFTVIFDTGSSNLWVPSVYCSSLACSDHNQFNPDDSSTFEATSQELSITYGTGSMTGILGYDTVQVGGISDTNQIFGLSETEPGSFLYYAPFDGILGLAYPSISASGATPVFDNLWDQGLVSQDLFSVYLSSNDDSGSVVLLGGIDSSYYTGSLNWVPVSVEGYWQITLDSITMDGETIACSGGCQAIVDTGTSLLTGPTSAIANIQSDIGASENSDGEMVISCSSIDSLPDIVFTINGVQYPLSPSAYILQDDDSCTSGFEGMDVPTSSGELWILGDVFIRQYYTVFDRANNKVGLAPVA

remaining at 8 h (porcine pepsin) [%] | remaining at 8 h (porcine pancreatin) [%] | bioavailability (in vivo) [%] | half-life (in vivo; iv) [min] | half-life at 10 μM [1, 4] [min] | microsomal CLint at 10 μM [1, 5] [µL/min/mg] | Half Life ([1]; individual replicates R1-R3) [min] | RLM CL ([1]; individual replicates R1-R3, incubation volume 400 ul, protein 0.5 mg/ml) [ul/min/mg protein] | half-life at 10 μM ([1]; pH 7.4, Half Life Mean, mean of R1-R3) [min] | half-life at 10 μM ([1]; pH 7.4, Half Life, individual replicates R1-R3) [min] | microsomal CLint at 10 μM ([1]; pH 7.4, RLM CL Mean, mean of R1-R3) [µL/min/mg] | microsomal CLint at 10 μM ([1]; pH 7.4, RLM CL, individual replicates R1-R3, incubation volume 400 ul, protein 0.5 mg/ml) [µL/min/mg] | Structure (SMILES) | metabolic clearance in humans [2] | oral availability [3] [%]
93 ± 12 | 98 ± 6 | 27 ± 4 | 110 | 193 ± 42 | 7.6 ± 1.9 | – | – | – | – | – | – | CC(C)C[C@@H]1NC(=O)[C@H](Cc2ccc(O)cc2)N(C)C(=O)[C@H]2CCCN2C(=O)[C@H](CC(C)C)NC(=O)[C@H](CC(C)C)N(C)C(=O)[C@@H](CC(C)C)N(C)C1=O [1NMe3, reference compound] (cyclo(L[dNMeL][NMeL]L[dP][NMeY])) | – | –
– | – | – | – | 13.4 ± 1.1 | 104 ± 8 | 12.36 | 112.14 | 13.4 | 14.9 | 104 | 93 | COc1ccc([C@@H]2Sc3ccccc3N(CCN(C)C)C(=O)[C@@H]2OC(C)=O)cc1 [Diltiazem, diltiazem, reference compound] | around 15 ml min^−1 kg^−1 | –
– | – | – | – | – | – | – | – | – | – | – | – | CCCCCCOC(=O)NC(=N)c1ccc(NCc2nc3cc(C(=O)N(CCC(=O)OCC)c4ccccn4)ccc3n2C)cc1 [dabigatran etexilate] | – | 6.5

From publication PMC11062899, “De novo development of small cyclic peptides that are orally bioavailable” (Nature Chemical Biology, 2023)
